# From patent US10576050B2, “Methods and compositions for treatment of cancer” (ONCONOVA THERAPEUTICS, INC., priority 2012, dated 2020)
# Values joined by “and” are separate entries in the source; they are usually repeats but may differ in a detail not shown here. Equal entries are not always repeated.
# How the values were obtained:
# [1] = Phase II randomized two-arm study of oral Rigosertib (560 mg bid, intermittent or continuous) in transfusion-dependent lower risk MDS patients; settings: for median duration of treatment: FIG. 5
# Protocol: Methods: This is a randomized, two-arm study of oral Rigosertib (560 mg bid) administered either intermittently (2 out of 3 weeks) or continuously. Transfusion-dependent patients received at least 4 units RBC transfusions over 8 weeks before randomization as well as transfusions and erythrocyte stimulating agents (ESAs) while on study.
# The study design in low or independent transfusion-dependent MDS patients: 43 patients enrolled and randomized 1:1 in two groups. The first group was administered 560 mg capsules BID in days 1-14 of 21 day cycle. The second group was administered 560 mg capsules BID in days 1-21 of 21 day cycle. […] The protocol was amended for the […] on intermittent dosing.
# In these cases 560 mg bid dosing was replaced with 560 mg am (30 min+ before breakfast) and 280 mg 2 hs+ after lunch and 30 min+ before dinner. Dysuria questionnaire (American Urological Association) was provided to all patients at baseline, 3 weeks and every 3 cycles thereafter and recommend for vigorous hydration and bicarbonate prn.
# The ongoing phase II trial 09-05 is designed to evaluate oral Rigosertib as a single agent in transfusion-dependent lower risk MDS patients. This trial is a randomized, two-arm study of oral Rigosertib (560 mg bid) administered either intermittently (2 out of 3 weeks) or continuously. Transfusion-dependent patients must have received at least 4 units of RBC transfusions over 8 weeks before randomization and can receive transfusions and erythrocyte stimulating agents (ESAs) while on study.
# [2] = tested on: human GM-CSF-dependent erythroblastic TF-1 cell line; assay: In vitro effect of ON 01910.Na on cell cycle readouts in TF-1 cells by SCNP; type: cell-based; settings: 24 hours
# Protocol: FIG. 2: In vitro effect of ON 01910.Na at clinically relevant concentrations on intracellular pathways in human GM-CSF-dependent erythroblastic TF-1 cell line using SCNP was evaluated in order to monitor transitional changes in the cell cycle, with a focus on the G2-M phase and to perform dose-dependent titrations of drug using these cell cycle readouts. The reagents chosen to measure cell cycle readouts were fluorochrome-conjugated antibodies that recognize cyclin B1, p-histone H3(S28) and p-Cdk1(Y15) and 4′6′-diamino-2-phenylindole (DAPI). […] TF-1 cell DNA content measured by DAPI verified this to be the case as increases in G2/M and sub-G1 (a measure of apoptotic cell death) were simultaneously observed. […] These effects were also observed at 48 hours, although with more cell death. This assay was used to measure the pharmacodynamics activity of the drug in MDS patient samples pre- and post-treatment with ON 01910.Na.
# [3] = 34 patients dosed intermittently
# [4] = individual transfusion responders
compound,measurement,setting,value
"COc1cc(OC)c(/C=C/S(=O)(=O)Cc2ccc(OC)c(NCC(=O)[O-])c2)c(OC)c1.[Na+] [Rigosertib, sodium (E)-2-{2-methoxy-5-[(2′,4′,6′-trimethoxystyrylsulfonyl)methyl]phenylamino}acetate]",overall tolerability of oral Rigosertib,[1]; 560 mg bid,well tolerated
same,"patients achieving TI, intent-to-treat analysis","[1]; 14/39 patients, intermittent dosing",36%
same,patients achieving transfusion independence,[1]; 15 patients treated with intermittent dosing for at least 8 weeks,47%
same,median duration of transfusion independence,"[1]; 15 responders, intermittent dosing (conclusion)",17 weeks
same,"patients achieving TI, intent-to-treat analysis",[1]; 17/48 patients (conclusion),35%
same,patients with transfusion independence,"[1]; 26 evaluable patients (8 wks+ treatment), intermittent 560 mg bid, FIG. 9",50% and 46%
same,"Abdominal Pain/discomfort, GRADE 2 incidents",[1]; [3],1
same,"Abdominal Pain/discomfort, GRADE 3 incidents",[1]; [3],0
same,"Abdominal Pain/discomfort, TOTAL %",[1]; [3],3%
same,"Diarrhea, GRADE 2 incidents",[1]; [3],1
same,"Diarrhea, GRADE 3 incidents",[1]; [3],0
same,"Diarrhea, TOTAL %",[1]; [3],3%
same,"Fatigue, GRADE 2 incidents",[1]; [3],5
same,"Fatigue, GRADE 3 incidents",[1]; [3],0
same,"Fatigue, TOTAL %",[1]; [3],15%
same,"Hematuria or Cytitis, GRADE 2 incidents",[1]; [3],1
same,"Hematuria or Cytitis, GRADE 3 incidents",[1]; [3],5
same,"Hematuria or Cytitis, TOTAL %",[1]; [3],18%
same,"Insomnia, GRADE 2 incidents",[1]; [3],1
same,"Insomnia, GRADE 3 incidents",[1]; [3],0
same,"Insomnia, TOTAL %",[1]; [3],3%
same,"Nausea, GRADE 2 incidents",[1]; [3],3
same,"Nausea, GRADE 3 incidents",[1]; [3],0
same,"Nausea, TOTAL %",[1]; [3],9%
same,"Neutropenia, GRADE 2 incidents",[1]; [3],2
same,"Neutropenia, GRADE 3 incidents",[1]; [3],2
same,"Neutropenia, TOTAL %",[1]; [3],6%
same,"Urinary urgency, GRADE 2 incidents",[1]; [3],12
same,"Urinary urgency, GRADE 3 incidents",[1]; [3],0
same,"Urinary urgency, SAE",[1]; [3],1
same,"Urinary urgency, TOTAL %",[1]; [3],35%
same,patients achieving transfusion independence,[1]; 36 patients on intermittent dosing treated for at least 8 consecutive weeks,39%
same,Responders (overall transfusion response),[1]; Continuous regimen,2
same,Responders (overall transfusion response),[1]; Intermittent regimen,13
same,Responders (overall transfusion response),[1]; Total,15
same,patients with grade 2+ urinary side effects,[1]; continuous dosing arm,5 of 9
same,median duration of treatment,"[1]; continuous dosing, 9 patients",24 weeks
same,patients achieving transfusion independence,"[1]; continuous dosing, nine patients (8 treated for at least 8 weeks)",two
same,patients progressed,[1]; four evaluable RAEB patients,one
same,patients achieving bone marrow complete response according to IWG 2006 criteria,"[1]; four evaluable RAEB patients, one unconfirmed",three
same,"Response (bone marrow, IWG 2006 criteria)",[1]; individual RAEB-1/RAEB-2 patients,BMCR (2×) and BMCRu
same,Response week Duration (transfusion independence),[1]; [4],≥ 48 weeks and ≥ 37 weeks and 17 weeks and 37+ weeks and 9 weeks and 28 weeks and 30 weeks and 8 weeks and 17+ weeks and 12 weeks and 14+ weeks and 48+ weeks
same,Response week Onset (transfusion response),[1]; [4],1 weeks (8×) and 24 weeks and 14 weeks and 4 weeks and 19 weeks and 13 weeks
same,patients with urinary grade 2+ toxicity,[1]; intermittent dosing with option of dose interruption/reduction,4/20
same,median duration of treatment,"[1]; intermittent dosing, 34 patients",not reached
same,patients achieving transfusion independence,"[1]; intermittent dosing, at least 8 consecutive weeks, 15 patients (conclusion)",45%
same,interaction between Rigosertib and ESA,"[1]; lower-risk transfusion dependent MDS, concomitant ESA",synergy
same,patients developing grade 2 urinary toxicity,"[1]; twelve patients, 560 mg AM and 280 mg PM, median 6 weeks",one
same,Bone marrow blast values,"[1]; week 15 follow-up, individual RAEB-1/RAEB-2 patients",4% and 10% and 77% and 3%
same,Bone marrow blast values,"[1]; week 30 follow-up, individual RAEB-1/RAEB-2 patients",4% and 9%
same,Bone marrow blast values,"[1]; week 45 follow-up, individual RAEB-1/RAEB-2 patients",5%
same,Bone marrow blast values,"[1]; week 60 follow-up, individual RAEB-1/RAEB-2 patients",5%
same,effect on G2/M cell cycle transition,[2]; DAPI DNA content,mitotic arrest with subsequent apoptosis
same,drug concentration of maximal effects on cell cycle signaling molecules,"[2]; cyclin B1, p-histone H3(S28), p-Cdk1(Y15)",0.37 µM
